Source: patent US20210071180A1, “MICRORNA 584-5P COMPOSITIONS AND METHODS FOR TREATING CANCER” (BOARD OF REGENTS, THE UNIVERSY OF TEXAS SYSTEM, priority 2018, published 2021)

What was measured:
Format in all cases: cell-based
eIF4E3 = assay: qPCR and Western blot of eIF4E3 in MB cells; conditions: transcript and protein levels, all cell lines tested
[1] = system: activated CHK1, ATR, BRCA1; assay: Western blot of checkpoint proteins; conditions: miR-584-5p mimic-transfected MB cells
Protocol: FIG. 13C-D show representative immunofluorescence images showing 53BP1 foci in D556Med cells transfected with miR-NC or miR-584-5p mimic (C) or scramble-siRNA or eIF4E3/HDAC1-siRNAs (D) and treated with or without 10 Gy of IR.
Immunofluorescence and Western blot analysis Immunofluorescence analyses was carried out on cells fixed in 4% paraformaldehyde (Imam, J. S. et al. PLoS One 7, e52397, (2012)). Western blot analysis was performed on cell extracts from miR-584-5p mimic- or target gene siRNA-transfected MB cell lines in accordance with previously reported studies (Rajamanickam, S. et al. Clin Cancer Res 22, 3524-3536, (2016); and Imam, J. S. et al. PLoS One 7, e52397, (2012). Antibodies against horseradish peroxidase-conjugated β-actin (1:50,000; #A5316), β-tubulin (#T8328), and glyceraldehyde-3-phosphate dehydrogenase (GAPDH) (1:25,000; #G9295) were purchased from Sigma-Aldrich. Antibody against eIF4E3 (1:1000; #17282-1-AP) was purchased from Proteintech. Antibodies against HDAC1 (1:1000; #5356), pCHK1 (1:1000; #2348), and CHK1 (1:1000; #2360) were purchased from Cell Signaling Technology (Danvers, Mass., USA). Antibodies against MYC (1:1000; #Sc-40), BRCA1 (1:1000; #6954), and ATR (1:1000; #sc-515173) were purchased from Santa Cruz. Antibody against 53BP1 (1:300; #A300-272AT) was purchased from Bethyl Laboratories. […]

3′-UTR of HDAC1 = assay: Dual luciferase 3′-UTR reporter assay (HDAC1); conditions: miR-584-5p mimic in comparison with scrambled
Protocol: (§1) Dual luciferase assay. Wild-type or mutant 3′-UTR segments of the eIF4E3 and HDAC1 gene were cloned downstream of the luciferase gene in pGL3-promoter vector at the SacI and SpeI restriction sites. HEK293 cells were cotransfected with Renilla luciferase vector (pRLnull 380) and firefly luciferase vector containing pGL3-wt-eIF4E3; pGL3-mut-eIF4E3; or pGL3-wt-HDAC1, pGL3-mut-HDAC1, or pGL3 overnight and incubated in fresh complete medium for an additional 48 hours after transfection. Cells were then transfected with miRNA mimic (Invitrogen) for 24 hours. Next, cells were harvested with 1× passive lysis buffer (Promega) and luciferase activity was read using GLOMAX 20/20 luminometer (Promega).
(§2) Data are z-transformed. The cutoff criteria for each gene are fold change >2, sample intensity >10, and p-value <0.05. […] To validate the gene expression analysis and target prediction results, it was determined whether miR-584-5p reduced HDAC1/eIF4E3 expression by binding to their 3′-untranslated regions (3′-UTRs). […] Also shown are the portion of the miR-584-5p sequence (SEQ ID NO: 15; UAUGGUU) that binds to the wild-type 3′UTR and seed sequence mutant (SEQ ID NO: 16; […], top panel; and SEQ ID NO: 17; […]; bottom panel). Also shown is miR-584-5p seed sequence mutated sequences. […] The p-values were calculated using standard Student t-tests. […] The p-values were calculated using standard Student t-tests.

c-Myc = assay: qPCR and Western blot of c-Myc; conditions: c-Myc-amplified MB cells
Protocol: Immunofluorescence and Western blot analysis Immunofluorescence analyses was carried out on cells fixed in 4% paraformaldehyde (Imam, J. S. et al. PLoS One 7, e52397, (2012)). […]
Because c-Myc supports cancer stem cell growth, promotes radioresistance (Gravina, G. L. et al. Radiat Res 185, 411-422, (2016)), and has elevated levels in VCR-resistant cancer cells (He, Y., Zhang, J., Zhang, J. & Yuan, Y. Chin Med J (Engl) 113, 848-851 (2000)), it was tested whether miR-584-5p and its target genes may regulate c-Myc-amplified MB growth and therapy sensitization by targeting c-Myc levels/functions. […] In FIG. 14D, the p-values were calculated using standard Student t-tests. […] To test that possibility, it was assessed whether miR-584-5p target genes may regulate c-Myc levels in MB. […] Cell viability was assessed using alamarBlue. The p-value was calculated using one-way ANOVA followed by Sidak's multiple-comparisons test. […]

3′-UTR of eIF4E3 = assay: Dual luciferase 3′-UTR reporter assay (eIF4E3); conditions: miR-584-5p mimic in comparison with scrambled
Protocol: as §1, §2

miR-584-5p: microRNA mimic; nucleotide sequence UUAUGGUUUGCCUGGGACUGAG (SEQ ID NO: 1); purchased from Thermofisher (chemistry not given here)
expression of eIF4E3 (eIF4E3): significantly reduced expression
levels of activated CHK1 and ATR, as well as BRCA1 [1]: significantly lower levels
luciferase activity, HDAC1 3′-UTR with mutated miR-584-5p binding sites (3′-UTR of HDAC1): no change in luciferase activity
luciferase activity, wild-type HDAC1 3′-UTR construct (3′-UTR of HDAC1): significantly reduced
c-Myc levels (c-Myc): significantly reduced expression of c-Myc
luciferase activity, eIF4E3 3′-UTR with mutated miR-584-5p binding sites (3′-UTR of eIF4E3): no change in luciferase activity
luciferase activity, wild-type eIF4E3 3′-UTR construct (3′-UTR of eIF4E3): significantly reduced
